In ChEMBL document CHEMBL4483862, “Open-source discovery of chemical leads for next-generation chemoprotective antimalarials” (2018):

Tested on: Plasmodium berghei
Experiment: Luciferase/luciferin-expressing antifolate-resistant parasites were used to infect a culture of HepG2 cells that were pre-incubated with compounds. Infected hepatocytes emit light due to the luciferase reaction. Assay results are presented as the percent inhibition of light emission compared to control. […]
Assay type: functional
Conditions: sporozoite; for IC50: read-out: LUCIFERASE INFECTION ASSAY - IC50; for IC90: read-out: LUCIFERASE INFECTION ASSAY - IC90

| SMILES | IC50 [µM] | IC90 [µM] |
| --- | --- | --- |
| CN1C(=O)Cc2cc(C3=NNC(=Nc4ccccc4F)SC3)ccc21 | > 10 | > 10 |
| O=C(COCc1nc2ccccc2s1)NCc1ccc(Cn2cccn2)cc1 | > 10 | > 10 |
| Cc1cc(C)c(OCC(=O)N2CCCC2c2nc3ccccc3[nH]2)c(C)c1 (stereo not drawn) | > 10 | > 10 |
| CC(C)(C)OC(=O)Nc1ccc(C(=O)NCC2(c3ccccc3)CC2)cc1 | > 10 | > 10 |
| COc1ccc(-c2nc(NC(=O)c3ccc(-n4cccn4)nc3)sc2C)cc1 | > 10 | > 10 |
| CC1CSC(N(C(=O)COc2ccccc2F)c2ccc(Cl)cc2)=N1 (stereo not drawn) | > 10 | > 10 |
| COc1ccc(NC(=O)C(c2ccccc2)N2CCN(C)CC2)cc1Cl (stereo not drawn) | > 10 | > 10 |
| Cc1nc(-c2ccc(F)cc2)sc1C(=O)N1CCc2sccc2C1 | > 10 | > 10 |
| CC1CN(C(=O)c2ccc(CN3C(=O)CNC3=O)cc2)CCO1 (stereo not drawn) | > 10 | > 10 |
| CC1CCC(NC(=O)c2ccc(S(=O)(=O)Nc3ccccc3)cc2)CC1 (stereo not drawn) | > 10 | > 10 |
| COc1ccc(C(CNC(=O)c2cc(Br)ccc2F)N(C)C)cc1 (stereo not drawn) | > 10 | > 10 |
| N#CCCN(CCC#N)C(=O)CSc1nnc(CCC(N)=O)n1C1CC1 | > 10 | > 10 |
| COc1cc(OC)c(C(=O)N2CC=C(c3c[nH]c4ccccc34)CC2)cc1OC | > 10 | > 10 |
| Cc1cc(C)n(CC(=O)n2cc(C(=O)c3cc(F)ccc3O)cn2)n1 | > 10 | > 10 |
| Clc1ccc2c(N(Cc3ccco3)Cc3cccs3)ncnc2c1 | > 10 | > 10 |
| Cc1oc(-n2cccc2)c(C#N)c1C(=O)Nc1ccn(C)n1 | > 10 | > 10 |
| O=C1NC2=C(C(=O)N(CCC3=CCCCC3)C2)C(c2ccc(F)cc2)N1 (stereo not drawn) | > 10 | > 10 |
| CN(C)C(CNC(=O)c1ccc(NC(=O)OC(C)(C)C)cc1)c1cccs1 (stereo not drawn) | > 10 | > 10 |
| COc1ccc(OCCn2nc(-c3cccs3)c3ccccc3c2=O)cc1 | 3.71 | > 10 |
| COc1cc(C(=O)N2CC=C(c3c[nH]c4ccccc34)CC2)ccc1C | > 10 | > 10 |
| CCc1ccc(C2=NNC(=Nc3ccccc3F)SC2)s1 | > 10 | > 10 |
| Cc1ccc(NC(=O)c2cccc(NS(=O)(=O)c3ccc(C)c(F)c3)c2)nc1 | > 10 | > 10 |
| Cc1cc(Oc2ccc(-c3ccccc3)cc2)nc(C)n1 | > 10 | > 10 |

| SMILES | IC50 [µM] | IC90 [µM] |
| --- | --- | --- |
| Cc1nc2ncnn2c(C)c1CC(=O)NCCCSc1ccc(F)cc1 | > 10 | > 10 |
| CC(Sc1cc(C(N)=O)c2ccccc2n1)C(=O)Nc1cccc(F)c1 (stereo not drawn) | > 10 | > 10 |
| CN(Cc1nc2ccccc2s1)C(=O)c1cccc(C#N)c1 | > 10 | > 10 |
| CS(=O)(=O)c1ccc(S(=O)(=O)Nc2cccc3c2CCCC3)cc1 | > 10 | > 10 |
| Cc1cc(C(O)=C2Sc3ccccc3C2=O)c(C)n1C | > 10 | > 10 |
| COc1ccc(C2CCCN2Cc2ccc(C(N)=O)cc2)c(OC)c1 (stereo not drawn) | > 10 | > 10 |
| CCOc1ccc(OCCC(=O)NCc2cccc(C(F)(F)F)c2)cc1 | > 10 | > 10 |
| Cc1ccc(C)c(NC(=O)CN(C)C(=O)CN2CCN(c3ccccc3)CC2)c1 | > 10 | > 10 |
| CCC(=O)c1ccc(OCC(=O)N(C)C2CCc3ccccc32)cc1 (stereo not drawn) | > 10 | > 10 |
| Cc1ccc(C)c(OCC(O)Cn2nc(C)c3ccccc3c2=O)c1C (stereo not drawn) | > 10 | > 10 |
| CCCN(CC(=O)Nc1ccccc1C)C(=O)Cn1nnc2ccccc21 | > 10 | > 10 |
| Cc1nn(C)c2sc(C(=O)N(C)c3nc4ccccc4s3)cc12 | > 10 | > 10 |
| O=C(c1cnc2nc(N3CCCCC3)sc2c1)c1ccccc1O | 6.09 | > 10 |
| CC(=O)c1ccc(S(=O)(=O)N(Cc2c(F)cccc2Cl)C2CC2)cc1 | > 10 | > 10 |
| Cc1cccc(C2NC(=O)NC3=C2C(=O)N(Cc2ccc(F)cc2)C3)c1 (stereo not drawn) | > 10 | > 10 |
| Cc1cc(OCC(=O)N(C)Cc2nc3ccsc3c(=O)[nH]2)ccc1C(C)C | > 10 | > 10 |
| Cc1noc(C)c1CSc1nc(C(C)(C)C)nc2c1c(=O)n(C)c(=O)n2C | > 10 | > 10 |
| CC(C)n1cc(C(=O)c2ccccc2O)cc1-c1nc2ccccc2o1 | > 10 | > 10 |
| CN(Cc1ccc(OCc2ccc(Cl)cc2)cc1)C(=O)c1cnn(C)c1 | > 10 | > 10 |
| CC(C)Cn1c(=O)n(C)c(=O)c2c(SCC#N)nc(CC(C)(C)C)nc21 | > 10 | > 10 |
| Cc1ccc(C(=O)O)cc1NS(C)(=O)=O | > 10 | > 10 |
| CC1C(=O)N(Cc2ncc(-c3ccccc3)o2)C(=O)N1c1ccc(F)cc1 (stereo not drawn) | 9.72 | > 10 |
| O=C(Nc1ccc(-c2csc(N3CCOCC3)n2)cc1)c1cccc(F)c1 | > 10 | > 10 |

| SMILES | IC50 [µM] | IC90 [µM] |
| --- | --- | --- |
| O=C(c1ccoc1)N1CCN(Cc2sc3ccccc3c2Cl)CC1 | > 10 | > 10 |
| CC(C)(C)c1ccccc1NC(=O)CCC(=O)N1CCC(c2ccccc2)=N1 | > 10 | > 10 |
| COc1ccc(C)cc1C(C)NC(=O)c1cnn(Cc2ccccc2)c1 (stereo not drawn) | > 10 | > 10 |
| CN(Cc1ccccc1N1CCCCC1)C(=O)c1ccc(NC(=O)C2CC2)s1 | > 10 | > 10 |
| O=C(Nc1ccc(CNC(=O)C2Cc3cc(Cl)ccc3O2)cc1)c1ccco1 (stereo not drawn) | > 10 | > 10 |
| CSc1nc2ccc(NC(=O)c3[nH]c4c(c3C)C(=O)CCC4)cc2s1 | > 10 | > 10 |
| Cc1noc2nc(C3CC3)cc(C(=O)N3CCC(C(N)=O)CC3)c12 | > 10 | > 10 |
| CC(C)C1NC(=O)N(CCCOc2ccc(C(C)(C)C)cc2)C1=O (stereo not drawn) | 9.61 | > 10 |
| O=C(NCC1(c2ccccc2)CCC1)c1ccc(Cn2nnc3ccccc32)cc1 | > 10 | > 10 |
| COc1ccc(C)cc1NC(=O)CN(Cc1ccc2c(c1)OCO2)C1CCCC1 | > 10 | > 10 |
| Cc1cccc(C2NC(=O)NC3=C2C(=O)N(CCc2ccccc2)C3)c1 (stereo not drawn) | > 10 | > 10 |
| COc1ccc(C(NC(=O)c2ccc(-n3cccc3)cc2)c2nccn2C)cc1 (stereo not drawn) | > 10 | > 10 |
| C=CCN(C(=O)c1ccccc1Br)c1nc2ccccc2s1 | > 10 | > 10 |
| COc1ccccc1N(C(=O)c1cccc(C#N)c1)c1nc2ccccc2s1 | > 10 | > 10 |
| Cc1cc(C(=O)COC(=O)c2ccc(Cl)cc2N)c(C)n1CC1CCCO1 (stereo not drawn) | > 10 | > 10 |
| COc1ccc(C)cc1C(C)NC(=O)c1cc2ccsc2[nH]1 (stereo not drawn) | > 10 | > 10 |
| Cc1ccc(-n2nnnc2SCc2nc(-c3ccc(C)c(F)c3)no2)c(C)c1 | > 10 | > 10 |
| O=S(=O)(Nc1ccc(S(=O)(=O)NC2CC2)cc1)c1cc(F)cc(F)c1 | > 10 | > 10 |
| O=C(CCCNC(=O)c1ccsc1)Nc1ccc(OC(F)(F)F)cc1 | > 10 | > 10 |
| Cc1cc(C)n(CCCNC(=O)Cc2c(C)nc3ncnn3c2C)n1 | > 10 | > 10 |
| Cc1ccc(C)c(NC(=O)CN(C)C(=O)CN(C)C(C)c2ccccc2)c1 (stereo not drawn) | > 10 | > 10 |
| N#Cc1cccc(NC(=O)CNc2cc(C(F)(F)F)ccc2N2CCCC2)c1 | > 10 | > 10 |
| O=C(Cc1nc(=O)c2c3c(sc2[nH]1)CCCC3)c1c[nH]c2ccccc12 | > 10 | > 10 |

| SMILES | IC50 [µM] | IC90 [µM] |
| --- | --- | --- |
| c1ccc(-c2nnc(SCc3cn4ccccc4n3)nc2-c2ccccc2)cc1 | > 10 | > 10 |
| CN(C(=O)CN1CCc2ccccc2C1)C1(C#N)CCCCC1 | > 10 | > 10 |
| COc1ccc(OC)c(CSc2nnc(Nc3cccc(F)c3)s2)c1 | > 10 | > 10 |
| O=c1cc(N2CCN(CCOc3ccccc3Cl)CC2)nc2ccccn12 | > 10 | > 10 |
| CCc1ccc2nc(NC(=O)CN(C)C(=O)c3ccco3)sc2c1 | > 10 | > 10 |
| O=C(Cc1cc(Cl)c2c(c1)OCCO2)NC(c1ccccc1)c1cccs1 (stereo not drawn) | > 10 | > 10 |
| CCc1ccccc1NCC(=O)Nc1cc(Cl)ccc1-n1cncn1 | > 10 | > 10 |
| CNC(=O)c1ccc(S(=O)(=O)Nc2cccc(-c3nnnn3C)c2)cc1 | > 10 | > 10 |
| O=C(c1ccc(-c2ccc3c(c2)OCCO3)s1)N1CCc2ccccc21 | > 10 | > 10 |
| CC(=O)NCc1ccc(-c2csc(NC(=O)CCc3ccco3)n2)cc1 | > 10 | > 10 |
| CCc1cccc(NC(=O)c2cc(C3CC3)nc3c2c(C)nn3C)c1 | > 10 | > 10 |
| O=C(Nc1ccccc1)c1ccc(CN2CCCC(C(F)(F)F)C2)cc1 (stereo not drawn) | 2.2 | 8.25 |
| CC(=O)N1CCc2cc(NC(=O)CNc3ccc(C)cc3C)ccc21 | > 10 | > 10 |
| COc1ccc2cc(CN(C)C(=O)c3cnn(Cc4ccccc4)c3)ccc2c1 | 2.85 | > 10 |
| CCCOc1ccccc1NC(=O)COc1nnc2ccccn12 | > 10 | > 10 |
| Cc1cccc(OCc2nnc(SCC(=O)c3ccc4c(c3)CCC4)o2)c1 | > 10 | > 10 |
| CC(=O)c1c(F)cccc1N1CCC(c2nc3ccccc3[nH]2)CC1 | 2.87 | 5.87 |
| COc1ccc(S(=O)(=O)N2CCN(CC(=O)N3CCCCCC3)CC2)cc1 | > 10 | > 10 |
| CC(C)c1cccc(Nc2ccc3nnc(C(F)(F)F)n3n2)c1 | > 10 | > 10 |
| O=C(Cn1nc(-c2ccco2)oc1=O)N(Cc1ccccc1)c1ccccc1 | > 10 | > 10 |
